Data reported in the supplement of paper PMC10307832.

Assays:
Assay in all cases: relative viability (nuclei count vs DMSO), 5 days (fraction); higher = more cells survive
IU1-47 + Foretinib = compound: CC1=CC(=C(N1C2=CC=C(C=C2)Cl)C)C(=O)CN3CCCCC3 [IU1-47] + COc1cc2c(Oc3ccc(NC(=O)C4(C(=O)Nc5ccc(F)cc5)CC4)cc3F)ccnc2cc1OCCCN1CCOCC1 [Foretinib] (partner 0.25 µM)
Outline: (§1)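 Relative viability divides the nuclei count in treated wells by that in vehicle wells. Lung cancer cell lines were seeded in 1536-well plates, dosed by pin tool the next day, and fixed and stained after 5 days in one step with final 0.05% Triton X-100, 1% formaldehyde and 1 ug/ml Hoechst. Dosing was a single drug or a fixed anchor-drug dose plus five library-drug doses (not always all listed) in √10 steps, and values are medians of duplicate plates imaged at 4×.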

IU1-47 + Decitabine = compound: CC1=CC(=C(N1C2=CC=C(C=C2)Cl)C)C(=O)CN3CCCCC3 [IU1-47] + Nc1ncn([C@H]2C[C@H](O)[C@@H](CO)O2)c(=O)n1 [Decitabine] (partner 2 µM)
Outline: as §1

FG-4592 + Navitoclax = compound: Cc1nc(C(=O)NCC(=O)O)c(O)c2ccc(Oc3ccccc3)cc12 [FG-4592] + CC1(C)CCC(c2ccc(Cl)cc2)=C(CN2CCN(c3ccc(C(=O)NS(=O)(=O)c4ccc(N[C@H](CCN5CCOCC5)CSc5ccccc5)c(S(=O)(=O)C(F)(F)F)c4)cc3)CC2)C1 [Navitoclax] (partner 0.5 µM)
Outline: as §1

FG-4592 + Decitabine = compound: Cc1nc(C(=O)NCC(=O)O)c(O)c2ccc(Oc3ccccc3)cc12 [FG-4592] + Nc1ncn([C@H]2C[C@H](O)[C@@H](CO)O2)c(=O)n1 [Decitabine] (partner 2 µM)
Outline: as §1

Row | Cell Line | relative viability (IU1-47 + Foretinib; first compound 0.08 µM) | relative viability (IU1-47 + Foretinib; first compound 0.253 µM) | relative viability (IU1-47 + Foretinib; first compound 0.8 µM) | relative viability (IU1-47 + Foretinib; first compound 2.53 µM) | relative viability (IU1-47 + Foretinib; first compound 8 µM) | relative viability (IU1-47 + Decitabine; first compound 0.08 µM) | relative viability (IU1-47 + Decitabine; first compound 0.253 µM) | relative viability (IU1-47 + Decitabine; first compound 0.8 µM) | relative viability (IU1-47 + Decitabine; first compound 2.53 µM) | relative viability (IU1-47 + Decitabine; first compound 8 µM) | relative viability (FG-4592 + Navitoclax; first compound 0.08 µM) | relative viability (FG-4592 + Navitoclax; first compound 0.253 µM) | relative viability (FG-4592 + Navitoclax; first compound 0.8 µM) | relative viability (FG-4592 + Navitoclax; first compound 2.53 µM) | relative viability (FG-4592 + Navitoclax; first compound 8 µM) | relative viability (FG-4592 + Decitabine; first compound 0.08 µM) | relative viability (FG-4592 + Decitabine; first compound 0.253 µM) | relative viability (FG-4592 + Decitabine; first compound 0.8 µM) | relative viability (FG-4592 + Decitabine; first compound 2.53 µM) | relative viability (FG-4592 + Decitabine; first compound 8 µM)
1 | LXF-289 | 1.01 | 1.06 | 1.1 | 0.967 | 0.902 | 0.377 | 0.367 | 0.397 | 0.367 | 0.346 | 0.956 | 0.914 | 1.02 | 0.936 | 0.953 | 0.425 | 0.386 | 0.35 | 0.378 | 0.305
2 | NCI-H23 | 0.91 | 1.14 | 1.04 | 1.17 | 1.03 | 0.347 |  | 0.312 | 0.319 | 0.302 | 0.832 | 0.786 | 0.809 | 0.744 | 0.708 | 0.322 | 0.268 | 0.334 | 0.265 | 0.267
3 | NCI-H322M | 1.07 | 1.03 | 0.882 | 0.965 | 1.03 | 0.776 | 0.807 | 0.645 | 0.683 | 0.652 | 1.3 | 1.21 | 1.08 | 1 | 1.19 |  | 0.658 | 0.714 | 0.638 | 0.725
4 | NCI-H441 | 0.873 | 1.15 | 0.986 | 1.13 | 0.864 | 0.254 | 0.257 | 0.212 | 0.254 | 0.234 | 0.606 | 1.01 | 0.573 | 0.964 | 0.588 | 0.235 | 0.255 | 0.234 | 0.232 | 0.25
5 | NCI-H460 | 1.09 | 1.04 | 1.26 | 0.86 | 1.15 | 0.536 | 0.494 | 0.563 | 0.51 | 0.579 | 1.15 | 1.08 | 1.25 | 0.963 | 0.979 | 0.448 | 0.461 | 0.51 | 0.482 | 0.51
6 | NCI-H520 | 0.785 | 0.866 | 0.698 | 1.15 | 0.651 | 0.484 | 0.507 | 0.469 | 0.513 | 0.416 | 1.03 | 1.05 | 1.05 | 1.07 | 0.879 | 0.454 | 0.443 | 0.493 | 0.577 | 0.434
7 | NCI-H596 | 0.893 | 0.82 | 0.806 | 0.87 | 0.761 | 1.05 |  | 1.03 | 1.09 | 0.977 | 0.897 | 0.914 |  | 0.991 | 0.817 | 0.92 | 1.01 |  | 0.897 | 0.8
8 | NCI-H647 | 1.12 | 1.36 |  | 1.25 | 1.34 | 0.454 | 0.487 | 0.462 | 0.39 | 0.4 | 1.16 | 1.04 | 1.04 | 0.961 | 1.12 | 0.347 | 0.326 | 0.341 | 0.372 | 0.227
9 | NCI-H727 | 1.05 | 0.988 | 0.871 | 1.02 | 0.987 | 0.875 | 0.894 | 0.989 | 0.722 | 0.866 | 0.537 | 0.403 | 0.413 | 0.63 | 0.525 | 0.889 | 0.663 | 1.15 | 0.9 | 0.84
10 | NCI-H838 | 1.12 | 1.07 | 0.981 | 1.06 | 1.11 | 0.423 | 0.451 | 0.471 | 0.501 | 0.449 | 1.27 | 1.09 | 1.09 | 1.2 | 1.11 | 0.456 | 0.439 | 0.446 | 0.459 | 0.443
11 | NCI-H1355 | 1.06 | 1.06 | 0.946 |  | 0.998 | 0.364 | 0.342 | 0.348 |  | 0.349 | 1.08 | 0.94 |  | 0.901 | 0.862 | 0.355 | 0.297 |  | 0.378 | 0.307
12 | NCI-H1395 | 0.944 | 0.895 | 1.12 | 0.939 | 1 | 0.687 | 0.802 | 0.699 | 0.704 | 0.713 | 1.37 | 1.01 |  | 1.02 | 0.958 | 0.766 | 0.677 | 0.75 | 0.686 | 0.614
13 | NCI-H1437 | 1.31 | 1.29 | 1.28 | 1.22 | 1.2 | 0.573 | 0.513 | 0.658 | 0.63 | 0.547 | 1.07 | 1.09 | 1.16 | 1.01 | 0.852 | 0.576 | 0.512 | 0.606 | 0.632 | 0.534
14 | NCI-H1650 | 1.05 | 1.17 | 1.1 | 1.4 | 0.886 | 0.474 | 0.593 | 0.391 | 0.366 | 0.445 | 1.23 | 1.12 | 1.37 | 1.17 | 1.24 | 0.504 | 0.378 | 0.358 | 0.421 | 0.331
15 | NCI-H1651 | 0.946 | 0.869 | 0.903 | 0.787 | 0.973 | 0.627 | 0.672 | 0.522 | 0.357 | 0.579 | 1.13 | 0.946 | 1.08 | 1.18 | 0.833 | 0.713 | 0.603 | 0.703 | 0.668 | 0.499
16 | NCI-H1666 | 1.04 | 0.928 | 0.893 | 0.948 | 0.896 | 0.802 | 0.714 | 0.718 | 0.738 | 0.784 | 1.01 | 0.674 | 1.07 | 0.905 | 0.879 | 0.836 | 0.724 | 0.867 | 0.711 | 0.759
